# From BindingDB's records for doi:10.1021/jm00378a002 (1985)
# Biological target: uridine-cytidine kinase (Mus musculus)
# Experiment: Binding affinity to uridine kinase from L1210. was determined from the dixon plot
compound,measurement,value
"O=c1ccn([C@@H]2C=C(CO)[C@@H](O)[C@H]2O)c(=O)[nH]1 [1-(4,5-Dihydroxy-3-hydroxymethyl-cyclopent-2-enyl)-4-hydroxy-1H-pyrimidin-2-one]",Ki,230 µM
